Test results reported in article PMC4472506 (Nature chemical biology, 2015).
Values belong to the molecule of their own block, whether it stands above or below them.

Experiments:
[1] = target: T1, BTK (Homo sapiens, UniProt Q06187); test: Cellular durability
[2] = target: T1, BTK; test: Dissociation of compound from BTK after guanidine-mediated unfolding; conditions: relative to samples without BTK
[3] = target: EGFR (Homo sapiens, UniProt P00533); test: Enzymatic IC50 assay; type: biochemical
[4] = target: T2, ITK (Homo sapiens, UniProt Q08881); test: Enzymatic IC50 assay; type: biochemical
T2 sequence (Q08881 1-620): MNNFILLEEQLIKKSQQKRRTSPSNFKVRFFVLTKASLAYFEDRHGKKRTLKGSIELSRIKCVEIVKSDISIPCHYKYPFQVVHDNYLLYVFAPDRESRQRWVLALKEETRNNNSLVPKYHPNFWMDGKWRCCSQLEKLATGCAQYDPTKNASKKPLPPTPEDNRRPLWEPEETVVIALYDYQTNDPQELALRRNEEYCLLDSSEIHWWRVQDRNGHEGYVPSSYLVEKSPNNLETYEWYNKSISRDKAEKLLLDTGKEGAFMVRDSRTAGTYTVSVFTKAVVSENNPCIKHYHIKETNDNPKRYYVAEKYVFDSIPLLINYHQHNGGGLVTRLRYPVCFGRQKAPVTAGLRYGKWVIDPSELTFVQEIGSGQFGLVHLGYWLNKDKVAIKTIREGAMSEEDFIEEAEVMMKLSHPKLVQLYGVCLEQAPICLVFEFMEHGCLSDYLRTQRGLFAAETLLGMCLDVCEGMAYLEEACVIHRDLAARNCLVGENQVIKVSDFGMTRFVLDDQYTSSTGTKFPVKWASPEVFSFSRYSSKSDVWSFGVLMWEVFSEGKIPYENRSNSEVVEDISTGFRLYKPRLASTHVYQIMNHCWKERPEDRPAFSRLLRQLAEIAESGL

[5] = target: T3, JAK3 (Homo sapiens, UniProt P52333); test: Enzymatic IC50 assay; type: biochemical
T3 sequence (P52333 1-1124): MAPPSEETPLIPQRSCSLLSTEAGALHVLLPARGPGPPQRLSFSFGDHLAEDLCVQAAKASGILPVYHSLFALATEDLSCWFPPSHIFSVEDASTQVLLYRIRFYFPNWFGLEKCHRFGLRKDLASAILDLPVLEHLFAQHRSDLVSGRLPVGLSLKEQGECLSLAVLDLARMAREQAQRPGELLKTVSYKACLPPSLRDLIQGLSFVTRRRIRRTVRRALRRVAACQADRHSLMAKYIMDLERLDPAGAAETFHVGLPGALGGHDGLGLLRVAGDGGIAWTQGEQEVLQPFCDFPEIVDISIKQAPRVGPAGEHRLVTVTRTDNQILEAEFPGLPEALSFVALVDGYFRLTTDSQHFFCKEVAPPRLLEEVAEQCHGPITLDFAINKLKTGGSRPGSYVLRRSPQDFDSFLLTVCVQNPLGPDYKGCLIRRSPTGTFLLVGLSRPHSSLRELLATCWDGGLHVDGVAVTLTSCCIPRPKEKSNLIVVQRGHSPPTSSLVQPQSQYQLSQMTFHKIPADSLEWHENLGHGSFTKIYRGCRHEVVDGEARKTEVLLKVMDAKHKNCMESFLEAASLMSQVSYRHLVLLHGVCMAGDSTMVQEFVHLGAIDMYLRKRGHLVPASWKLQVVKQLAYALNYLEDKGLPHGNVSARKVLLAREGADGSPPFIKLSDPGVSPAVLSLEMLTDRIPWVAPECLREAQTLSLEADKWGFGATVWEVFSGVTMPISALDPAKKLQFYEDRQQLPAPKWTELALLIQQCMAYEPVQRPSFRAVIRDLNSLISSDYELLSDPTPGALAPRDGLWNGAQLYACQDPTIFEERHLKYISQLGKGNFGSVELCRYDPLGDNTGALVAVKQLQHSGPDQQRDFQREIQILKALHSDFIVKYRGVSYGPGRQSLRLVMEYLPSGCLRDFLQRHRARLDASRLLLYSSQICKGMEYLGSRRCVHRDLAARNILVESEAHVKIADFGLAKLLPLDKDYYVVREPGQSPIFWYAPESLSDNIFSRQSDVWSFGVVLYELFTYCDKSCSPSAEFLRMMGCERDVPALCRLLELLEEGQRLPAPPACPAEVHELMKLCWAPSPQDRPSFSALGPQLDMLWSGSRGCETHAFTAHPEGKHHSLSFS

[6] = Aqueous solubility; type: physicochemical
[7] = Oral bioavailability; conditions: in vivo
[8] = target: T1, BTK; test: Biochemical residence time using fluorescence competition; type: binding; conditions: for residence time: read-out: BTK residence time τ
[9] = target: T1, BTK; test: BTK cell occupancy using Alphascreen; type: cell-based

T1 sequence (Q06187 whole entry): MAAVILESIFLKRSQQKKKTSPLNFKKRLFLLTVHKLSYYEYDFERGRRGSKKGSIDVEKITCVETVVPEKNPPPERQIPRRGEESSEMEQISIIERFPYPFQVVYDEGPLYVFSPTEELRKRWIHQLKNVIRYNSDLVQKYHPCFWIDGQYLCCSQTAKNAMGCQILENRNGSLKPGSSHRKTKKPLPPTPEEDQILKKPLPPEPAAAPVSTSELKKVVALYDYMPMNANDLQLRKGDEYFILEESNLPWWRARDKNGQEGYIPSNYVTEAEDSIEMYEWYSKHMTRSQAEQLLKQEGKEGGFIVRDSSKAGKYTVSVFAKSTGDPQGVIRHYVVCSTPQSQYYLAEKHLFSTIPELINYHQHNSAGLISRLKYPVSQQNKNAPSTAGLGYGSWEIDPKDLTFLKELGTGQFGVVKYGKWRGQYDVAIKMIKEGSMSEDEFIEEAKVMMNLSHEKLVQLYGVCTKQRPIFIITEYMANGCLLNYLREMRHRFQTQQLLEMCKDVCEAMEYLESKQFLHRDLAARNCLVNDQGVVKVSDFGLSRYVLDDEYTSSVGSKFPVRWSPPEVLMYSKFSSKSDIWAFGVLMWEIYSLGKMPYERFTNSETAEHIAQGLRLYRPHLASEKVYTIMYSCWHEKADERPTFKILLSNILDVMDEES
EGFR, sequence (P00533 25-1210, species assumed): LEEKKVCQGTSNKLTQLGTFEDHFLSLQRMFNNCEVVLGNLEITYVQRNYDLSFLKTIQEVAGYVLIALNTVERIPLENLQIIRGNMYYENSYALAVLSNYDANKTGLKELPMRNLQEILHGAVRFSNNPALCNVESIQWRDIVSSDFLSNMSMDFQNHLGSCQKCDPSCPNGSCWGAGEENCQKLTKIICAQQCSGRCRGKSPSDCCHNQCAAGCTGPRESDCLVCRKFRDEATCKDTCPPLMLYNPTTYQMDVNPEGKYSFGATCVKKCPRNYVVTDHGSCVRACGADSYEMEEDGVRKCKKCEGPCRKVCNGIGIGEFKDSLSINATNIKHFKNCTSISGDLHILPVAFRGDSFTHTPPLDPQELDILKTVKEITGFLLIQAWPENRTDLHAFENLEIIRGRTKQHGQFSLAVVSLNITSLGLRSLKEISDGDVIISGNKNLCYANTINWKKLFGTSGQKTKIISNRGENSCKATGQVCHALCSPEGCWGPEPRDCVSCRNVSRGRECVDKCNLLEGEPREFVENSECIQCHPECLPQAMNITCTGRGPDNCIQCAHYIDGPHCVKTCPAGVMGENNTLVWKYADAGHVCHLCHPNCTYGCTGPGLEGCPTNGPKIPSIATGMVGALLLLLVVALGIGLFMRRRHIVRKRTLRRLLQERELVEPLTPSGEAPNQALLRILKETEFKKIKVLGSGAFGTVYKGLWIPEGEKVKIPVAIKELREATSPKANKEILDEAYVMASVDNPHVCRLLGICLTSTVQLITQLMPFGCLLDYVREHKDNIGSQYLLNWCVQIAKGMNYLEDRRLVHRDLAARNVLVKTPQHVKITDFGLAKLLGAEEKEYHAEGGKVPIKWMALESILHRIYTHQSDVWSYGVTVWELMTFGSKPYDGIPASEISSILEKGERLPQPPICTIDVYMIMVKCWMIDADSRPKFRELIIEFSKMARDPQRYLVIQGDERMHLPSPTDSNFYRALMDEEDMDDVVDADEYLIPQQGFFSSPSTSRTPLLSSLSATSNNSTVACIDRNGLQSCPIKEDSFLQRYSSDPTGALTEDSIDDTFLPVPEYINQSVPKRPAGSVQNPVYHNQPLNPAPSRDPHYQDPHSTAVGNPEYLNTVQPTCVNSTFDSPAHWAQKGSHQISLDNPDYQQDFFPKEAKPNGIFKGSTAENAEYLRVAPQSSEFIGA

BTK occupancy 20 hrs post-washout ([1]; Ramos B cells, 1 μM, 1 hr, PP-BODIPY): negligible
Structure (SMILES): CC=C(C#N)C(=O)N1CCC[C@@H](n2nc(-c3ccc(Oc4ccccc4)cc3)c3c(N)ncnc32)C1 [Compound 1]

Recovery of compound after guanidine-mediated denaturation of BTK [2]: 88 ± 10% | Selectivity for BTK over EGFR [3]: > 1,000 fold | Selectivity for BTK over ITK [4]: 60 fold | Selectivity for BTK over JAK3 [5]: > 1,000 fold | Solubility [6]: low solubility | Oral bioavailability [7]: poor oral bioavailability | receptor occupancy at 1 µM ([1]; Ramos, read-out: BTK occupancy 20 hrs post-washout): 55%
Structure (SMILES): CC(C)(C)C=C(C#N)C(=O)N1CCC[C@@H](n2nc(-c3ccc(Oc4ccccc4)cc3)c3c(N)ncnc32)C1 [Compound 3, (R)-2-(3-(4-Amino-3-(4-phenoxyphenyl)-1H-pyrazolo[3,4-d]pyrimidin-1-yl)piperidine-1-carbonyl)-4,4-dimethylpent-2-enenitrile]

residence time [8]: 4980 ± 840 min | IC50 [9]: 5 to 27 nM
Structure (SMILES): CC(C)(C=C(C#N)C(=O)N1CCC[C@H]1Cn1nc(-c2ccc(Oc3ccccc3)cc2F)c2c(N)ncnc21)N1CCOCC1 [Compound 8]

residence time [8]: > 12000 min | BTK residence time τ ([8]; room temperature): no evident dissociation | IC50 [9]: 5 to 27 nM
Structure (SMILES): C=CC(=O)N1CCC[C@@H]1Cn1nc(-c2ccc(Oc3ccccc3)cc2F)c2c(N)ncnc21 [PP-ir]
